Key:
human HD fibroblasts [1] = tested on: human HD fibroblasts
Description: Human HD fibroblasts (Coriell Cell Repositories) were maintained in MEM medium with 20% FBS. Cells were grown until they reached 70% confluence and then treated with the indicated concentrations of H2O2 for 30 min. The cells were washed, the medium was replaced, and the cells were allowed to recover for three days before repeating the treatment one or two more times. After the third treatment, the cells were collected and DNA was isolated. CAG repeat sizing was performed as described below.

[2] = tested on: lymphoblast cell lines obtained from HD patients; conditions: FIG. 2D
Description: DNA was purified from mouse tissues or cultured human fibroblasts (Kovtun et al., Hum. Mol. Genet., 13:3057-3068 (2004)) and used for PCR amplification of various microsatellites. CAG repeats at the hHD locus were amplified as described previously (Kovtun and McMurray, Nat. Genet., 27:407-411 (2001); Kovtun et al., Hum. Mol. Genet., 13:3057-3068 (2004)). […] One primer in each PCR amplification was labeled with FAM-6, and fluorescent products were analyzed using an ABI prism 3700 DNA analyzer instrument and the GeneMapper software v3 (Applied Biosystems).
It was then determined whether peroxide treatment could directly lead to CAG expansion at the hHD locus in human HD fibroblasts in response to oxidative damage.

human HD fibroblasts [3] = assay: Comet assay of H2O2-treated cells; conditions: cultured cells; FIG. 2F

**Q.** Which results are given for `OO` [H2O2, hydrogen peroxide]?
**A.** cell viability (human HD fibroblasts [1]): did not affect cell viability; expansion of CAG repeats at the hHD locus (human HD fibroblasts [1]; low (sub-lethal) doses, 30 min treatment repeated up to three times, FIG. 2C): uniformly led to expansion of CAG at intermediate or disease-length alleles; expansion of GAA repeats (chromosome 5 locus) (human HD fibroblasts [1]; same peroxide-treated cells, FIG. 2E): expansion was not detected; expansion of CAG repeats at the hHD locus [2]: expansions were observed; single strand breaks (comet assay) (human HD fibroblasts [3]): dose-dependent increase in single strand breaks
